“Also recorded” adds a separate entry of the source.
Key:
AcCoA levels = test: Targeted analysis of AcCoA levels in cultured cells (HPLC-MS); type: cell-based, human; settings: for AcCoA levels: cells kept in rich medium; for cytosolic AcCoA levels: cytosolic fraction; for AcCoA levels in starved cells: nutrient-depleted (starved) cells in vitro
Description: Cells were trypsinized, pelleted at 1000 rpm for 4 min, washed with PBS and pelleted again at 1000 rpm for 4 min. Cells were then resuspended in 5 ml of ice-cold hyposmotic buffer and keep on ice for 5 min. Cells were broken to release nuclei using a pre-chilled Dounce homogenizer (20 strokes with a tight pestle) and then were then centrifuged at 228 g.
For in vitro experiments, cell pellets were resuspended in 300 μL of water with HEPES and EDTA (pH 7.4) at 1 mM containing internal standard acetylcoenzyme A (2-C13) at 1 mg/L, vortexed and heated at 100° C. for 1 min. Samples were incubated in liquid nitrogen for 1 min and thawed at room temperature two times. They were let for 1 h at −20° C. and centrifuged at 4° C. during 15 min at 13,000 g. Supernatants were transferred in HPLC vials and injected in HPLC/MS or kept at −80° C. until injection. For in vivo experiments, frozen tissues were placed in ice-cold homogenization tubes containing ceramic beads. Five μL of ice-cold methanol/water (80/20; v/v) were added for 1 mg of tissue. Tissues were homogenized two times for 20 s at 5,500 rpm using Precellys 24 tissue homogenator (Bertin Technologies, Montigny-le-Bretonneux, France). Samples were placed 10 min on ice. Next they were centrifuged at 4° C. during 15 min at 13,000 g. Supernatants were transferred in HPLC vials and injected in HPLC-MS system or kept at −80° C. until injection.
Targeted analyses were performed on Rapid Resolution Liquid Chromatography (RRLC) 1200SL system (Agilent Technologies, Waldbronn, Germany) coupled to a Triple Quadruple QQQ 6410 mass spectrometer (Agilent Technologies). RRLC analysis was done on 150×2.1 mm, 3.5 μm Eclipse Plus SB-Aq column with a pre-column 30 mm×2.1 mm 3.5 μm Eclipse plus (Agilent Technologies) with water containing 10 mmol/L of ammonium acetate and 0.01% of acetic acid in channel A and acetonitrile in channel B in gradient mode at a flow rate of 0.3 mL·min^−1: t=0 min 2% B; t=9 min 95% B; t=11 min 95% B; re-equilibration time of 3 min. Mass spectrometer analysis was done in positive electrospray ionization mode at +4 kV on the QQQ system operating in MRM mode. MRM transitions were optimized with standard of AcCoA and AcCoA A 2-C^13 with direct infusion. Two transitions were recorded for each compound; • AcCoA 810>303 CE (collision energy) 28V; fragmentor 180V • 810>428 CE 20V • AcCoA 2-C13 812>305 CE 28V; fragmentor 180V • 812>428 CE 24V […]

[1] = system: cytoplasmic protein acetylation; test: Immunofluorescence of cytoplasmic acetyl-lysine-containing proteins; type: cell-based, human; settings: for cytoplasmic protein acetylation: cells kept in rich medium; for cytoplasmic protein acetylation in starved cells: nutrient-depleted (starved) cells in vitro
Description: Cells were fixed with 4% PFA for 15 min at room temperature, and permeabilized with 0.1% Triton X-100 for 10 min, except for staining of cytoplasmic acetyl-lysine-containing proteins, in which any permeabilization step further than PFA fixation was avoided. Non-specific binding sites were blocked with 5% bovine serum in PBS, followed by staining with primary antibodies overnight at 4° C. Development was carried out with appropriate AlexaFluor™ conjugates (Molecular Probes-Invitrogen). In the case of cytoplasmic acetyl-lysine staining, an additional step of blocking using anti-acetylated-tubulin antibody (1:200) was applied. Ten μM Hoechst 33342 (Molecular Probes-Invitrogen) was employed for nuclear counterstaining. Fluorescence and confocal fluorescence microscopy assessments were performed on an IRE2 microscope (Lcica Microsystems) equipped with a DC300F camera and with an LSM 510 microscope (Carl Zeiss, Jena, Germany), respectively.
U2OS, HeLa or H4 cells stably expressing GFP-LC3 were seeded in 96-well imaging plates (BD Falcon, Sparks, USA) 24 h before stimulation. Cells were treated with the indicated agents for 4 h. Subsequently, cells were fixed with 4% PFA and counterstained with 10 μM Hoechst 33342. Images were acquired using a BD pathway 855 automated microscope (BD Imaging Systems, San Jose, USA) equipped with a 40× objective (Olympus, Center Valley, USA) coupled to a robotized Twister II plate handler (Caliper Life Sciences, Hopkinton, USA). Images were analyzed for the presence of GFP-LC3 puncta in the cytoplasm by means of the BD Attovision software (BD Imaging Systems). Cell surfaces were segmented and divided into cytoplasmic and nuclear regions according to manufacturer standard proceedings. RB 2×2 and Marr-Hildreth algorithms were used to recognize cytoplasmic GFP-LC3 positive dots. Statistical analyses were implemented on the R software (http://www.r-project.org/). For quantitative analyses of protein acetylation, cell surfaces were segmented into cytoplasm and nuclei regions, and staining intensity of each individual cell was measured for statistical analysis.
Cells were fixed with 4% PFA for 15 min at room temperature, and permeabilized with 0.1% Triton X-100 for 10 min. For cytoplasmic Acetyl Lysine staining, we proceeded as described in 35. Non-specific binding sites were blocked with 5% bovine serum albumin in PBS, followed by incubation with primary antibodies overnight at 4° C. After 1 hour incubation, appropriate Alexa-conjugated Fluorophores (Invitrogen) were used for antigen detection. Ten μM Hoechst 33342 (Molecular Probes-Invitrogen, Eugene, USA) was employed for nuclear counterstaining Fluorescence wide-field and confocal microscopyassessments were performed on an DM IRE2 microscope (Leica Microsystems, Wetzlar, Germany) equipped with a DC300F camera and with an LSM 510 microscope (Carl Zeiss, Jena, Germany), respectively.
U2OS and H4 cells stably expressing GFP-LC3 were seeded in 96-well or 384-well imaging plates (BD Falcon, Sparks, USA). 24 h before stimulation, ells were treated with the indicated agents for 6 hours in absence of lysososomal ATPase inhibitors and for 3 hours in presence of Bafilomycin A1. Subsequently, cells were fixed with 4% PFA and counterstained with 10 μM Hoechst 33342. Images were acquired using a BD pathway 855 automated microscope (BD Imaging Systems, San Jose, USA) equipped with a 40× objective (Olympus, Center Valley, USA) coupled to a robotized Twister II plate handler (Caliper Life Sciences, Hopkinton, USA). […]

| SMILES | AcCoA levels (AcCoA levels) | cytosolic AcCoA levels (AcCoA levels) | cytoplasmic protein acetylation [1] | AcCoA levels in starved cells (AcCoA levels) | cytoplasmic protein acetylation in starved cells [1] | cytoplasmic protein acetylation ([1]; listed as Hydroxycitrate) |
| --- | --- | --- | --- | --- | --- | --- |
| O=C(O)c1cccc(C(=O)O)c1C(=O)O [BTC, 1,2,3-benzenetricarboxylate] | reduced both AcCoA levels | induced the triad of AcCoA depletion | reduced both AcCoA levels (A) and cytoplasmic protein acetylation; also recorded: protein deacetylation |  |  |  |
| COC(=O)CCC(=O)C(=O)OC [DMKG, dimethyl-α-ketoglutarate] |  | also raised the cytosolic concentration of AcCoA |  | increased cellular AcCoA levels; also recorded: maintained high AcCoA | increased cellular AcCoA levels (E) and cytoplasmic protein acetylation; also recorded: maintained high AcCoA and cytoplasmic acetylation levels |  |
| O=C(O)CC(O)(C(=O)O)C(O)C(=O)O (stereo not drawn) [HC, hydroxycitrate] | reduced both AcCoA levels | reduced cytoplasmic AcCoA levels | reduced both AcCoA levels (E, I) and cytoplasmic protein acetylation; also recorded: induced cytosolic protein deacetylation; also recorded: induced cytoplasmic protein deacetylation |  |  | reduces cytoplasmic; also recorded: reduced cytoplasmic protein acetylation |
| CC(C)CC(=O)C(=O)O [KIC, ketoisocaproic acid] |  | also raised the cytosolic concentration of AcCoA |  | increase in AcCoA levels; also recorded: sufficient to avoid AcCoA depletion | increase in AcCoA levels (A) and cytoplasmic protein acetylation; also recorded: sufficient to avoid AcCoA depletion and protein deacetylation |  |
| O=C(O)CCCCC1CCSS1 (stereo not drawn) [LA, lipoic acid] |  | also raised the cytosolic concentration of AcCoA |  | increased both cellular AcCoA levels; also recorded: maintain high AcCoA | increased both cellular AcCoA levels (K) and cytoplasmic protein acetylation; also recorded: maintain high AcCoA and cytoplasmic acetylation levels |  |
| N#CC(=Cc1cn(-c2ccccc2)c2ccccc12)C(=O)O [UK5099, 2-Cyano-3-(1-phenyl-1H-indol-3-yl)-2-propenoic acid] | reduced both AcCoA levels; also recorded: depletion of intracellular AcCoA | also raised the cytosolic concentration of AcCoA | reduced both AcCoA levels (A, E) and cytoplasmic protein acetylation; also recorded: deacetylation of cytoplasmic proteins |  |  |  |
| CC(C)C[C@H](N)C(=O)O [leucine] |  |  |  | sufficient to maintain high AcCoA levels | sufficient to maintain high AcCoA levels and cytoplasmic protein acetylation |  |
